This is an account of results in patent US6605424B1, “Method of detecting inhibitors of agonist-specific desensitization” (Duke University, priority 1989, dated 2003).

No end group written: not given here.

Series [1] concerns the target T1, βAR kinase (Bos taurus, UniProt P21146).
T1 construct: βAR kinase was purified from bovine cerebral cortex; from tissue; host or cells: bovine cerebral cortex
T1 sequence (P21146 1-689): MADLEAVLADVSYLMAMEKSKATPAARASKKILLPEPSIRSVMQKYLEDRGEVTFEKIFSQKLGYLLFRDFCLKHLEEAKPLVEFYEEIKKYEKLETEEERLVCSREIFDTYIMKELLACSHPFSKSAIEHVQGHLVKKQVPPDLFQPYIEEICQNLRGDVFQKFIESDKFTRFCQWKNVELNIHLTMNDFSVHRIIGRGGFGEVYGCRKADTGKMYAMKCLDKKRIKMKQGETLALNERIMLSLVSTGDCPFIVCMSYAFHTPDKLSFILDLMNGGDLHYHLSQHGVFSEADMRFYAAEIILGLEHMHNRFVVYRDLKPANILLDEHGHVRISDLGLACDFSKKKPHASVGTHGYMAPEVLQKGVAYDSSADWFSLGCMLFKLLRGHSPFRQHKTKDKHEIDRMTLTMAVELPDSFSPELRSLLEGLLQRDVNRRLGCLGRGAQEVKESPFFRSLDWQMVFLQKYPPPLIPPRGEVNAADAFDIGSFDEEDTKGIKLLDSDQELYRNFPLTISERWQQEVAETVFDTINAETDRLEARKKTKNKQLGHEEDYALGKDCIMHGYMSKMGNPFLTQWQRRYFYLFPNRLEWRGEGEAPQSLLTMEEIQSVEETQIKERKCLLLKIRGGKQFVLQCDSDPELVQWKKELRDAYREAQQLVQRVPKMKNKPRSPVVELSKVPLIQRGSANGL
Nature of the series: Phosphorylation of purified reconstituted β2ARs by purified βAR kinase (Example II). The class given is biochemical, bovine. The protocol:
FIG. 7. […] (Inset) Relevant section of a representative autoradiogram. Data are means±SEM of three independent experiments. […] Desensitization was measured as the percent loss of stimulation by 10 μM (−)-isoproterenol of adenylyl cyclase activity in membranes. […] Data are means±SEM of four independent experiments.
Purified β2ARs were inserted into phosphatidylcholine vesicles by chromatography on Extracti-gel, followed by polyethylene glycol treatment and centrifugation at 280,000×g for 90 min (Cerione et al (1984) Biochemistry 23:4519-4525). Phosphorylation of the reconstituted receptors by purified βAR kinase was done in the presence of 50 μM (−)-isoproterenol as described (Benovic et al (1987) J. Biol. Chem. 262:9026-9032). Subsequently, the samples were subjected to sodium dodecyl sulfate polyacrylamide gel electrophoresis on 10% gels (Laemmli (1970) Nature 227:680-685). The phosphorylated β2ARs were visualized by autoradiography, and the corresponding bands were cut out and their content of ^32P quantified.

For series [2], the system named is β2ARs in permeabilized A431 cells. Nature of the series: Desensitization of β2ARs in permeabilized A431 cells. Type of series: cell-based, human. The protocol:
Permeabilization of cells was accomplished as follows. Human epidermoid carcinoma A431 cells were grown to about 95% confluence in Dulbecco's modified Eagle's medium supplemented with 10% fetal calf serum. Cells were harvested with collagenase, washed three times with calcium-free phosphate-buffered saline (PBS), then washed twice in 150 mM potassium glutamate/10 mM Hepes/5 mM EGTA/7 mM MgCl2, pH 7.1 (KG buffer), and finally resuspended in KG buffer supplemented with 5 mM glucose and 2 mM ATP (KG-A buffer) at a density of 4×10^7 cells per ml.
At 4×10^7 cells per ml, about 0.015% digitonin was necessary to achieve permeabilization of >95% cells as assessed by staining with trypan blue. In all experiments, digitonin was added stepwise until >95% of the cells were trypan blue positive.

Series [3] deals with protein kinase C and cyclic nucleotide-dependent protein kinases. The conditions noted are these: cited from earlier work.
Series [4] addresses protein kinase A (Homo sapiens, UniProt P17612). Nature of the series: Peptides as substrates for protein kinase A. The class given is biochemical.
Series [5] deals with T1, βAR kinase. Nature of the series: Phosphorylation of rhodopsin (urea-treated rod outer segments) by βAR kinase. Type of series: biochemical, bovine. The conditions noted are these: read-out: IC50 (concentration of compound which gave 50% inhibition of βAR kinase); rhodopsin as substrate. The method, then:
(§1) βAR kinase was purified from bovine cerebral cortex by modification of procedure of Benovic et al (J. Biol. Chem. (1987) 262:9026-9032). Briefly, 250 g of bovine cerebral cortex were homogenized with a Brinkmann tissue disrupter and centrifuged (40,000×g, 30 min). The supernatant was then precipitated with 13-26% ammonium sulfate. This material was initially chromatographed on a Ultrogel AcA34 column equilibrated with 5 mM Tris-HCl, pH 7.5, 2 mM EDTA, 10 μg/ml leupeptin, 5 μg/ml pepstatin, 10 μg/ml benzamidine, 0.2 mM phenylmethylsulfonyl fluoride (buffer A). The peak activity was diluted with an equal volume of buffer A containing 0.04% Triton X-100 before being applied to a DEAE-Sephacel column. Elution was accomplished with a 0-80 mM NaCl gradient in buffer A containing 0.02% Triton X-100. The peak activity was then applied to a CM-Fractogel column and eluted with a 0-100 mM NaCl gradient in buffer A containing 0.02% Triton X-100. The purified kinase is stable at 4° C. for several months. For these studies the βAR kinase preparations were >75% pure.
(§2) Rod outer segments were prepared from bovine retinas by stepwise sucrose gradient centrifugation (Wilden et al Biochemistry (1982) 21:3014-3022). Rhodopsin kinase-free rod outer segments were prepared by treatment with 5 M urea (Shichi et al J. Biol. Chem. (1978) 253:7040-7046) and consisted of ˜95% rhodopsin, as assessed by Coomassie Blue staining of sodium dodecyl sulfate-polyacrylamide gels.
(§3) Urea-treated rod outer segments were phosphorylated with βAR kinase as follows. Urea-treated rod outer segments (˜4 μg of rhodopsin) were incubated with βAR kinase (˜0.1 μg) for 10-15 min at 30° C. in the presence of 40 mM Tris-HCl, pH 7.4, 10 mM NaCl, 5 mM MgCl2, 1.5 mM EDTA, and 65 μM ATP (˜1 cpm/fmol) (total reaction volume was 40 μl). Reactions were stopped by the addition of 40 μl of sodium dodecyl sulfate sample buffer (see below) followed by sodium dodecyl sulfate-polyacrylamide gel electrophoresis. After autoradiography, the phosphorylated rhodopsin bands were excised and counted.
Sodium dodecyl sulfate-polyacrylamide gel electrophoresis was performed by the method of Laemmli (Nature (1970) 227:680-685) using 10% homogeneous polyacrylamide slab gels. Sample buffer contained 8% sodium dodecyl sulfate, 10% glycerol, 5% 3-mercaptoethanol, 25 mM Tris-HCl, pH 6.5, and 0.003% bromphenol blue. After electrophoresis, gels were dried with a Bio-Rad gel dryer prior to autoradiography.

Series [6] has as its target T1, βAR kinase. Nature of the series: Reversal of heparin inhibition of βAR kinase by polycations. Type of series: biochemical, bovine. Particulars: read-out: EC50 for reversal of heparin inhibition; in the presence of 1.1 μM heparin. The method, then: as §3
Substrate in series [7]: CC[C@H](C)[C@H](NC(=O)[C@H](Cc1ccc(O)cc1)NC(=O)[C@H](CC(N)=O)NC(=O)[C@H](CC(C)C)NC(=O)[C@@H]1CCCN1C(=O)[C@@H](NC(=O)[C@H](CCCNC(=N)N)NC(=O)[C@H](CC(C)C)NC(=O)[C@H](CCCCN)NC(=O)[C@H](CCCCN)NC(=O)[C@H](Cc1c[nH]cn1)NC(=O)[C@H](CCC(N)=O)NC(=O)[C@@H](NC(=O)[C@@H](NC(=O)[C@@H](N)C(C)C)[C@@H](C)O)C(C)C)[C@@H](C)O)C(=O)O
Nature of the series: Phosphorylation of rhodopsin (urea-treated rod outer segments) by βAR kinase. Type of series: biochemical, bovine. The conditions noted are these: other: rhodopsin as substrate, absence of heparin; 30.0 °C. The protocol: as §1, with “The peak activity was then applied to a CM-Fractogel column and eluted with a 0-100 mM NaCl gradient in buffer A containing 0.02% Triton X-100. The purified kinase is stable at 4° C. for several months. For these studies the βAR kinase preparations were >75% pure.” left out
as §2
Urea-treated rod outer segments were phosphorylated with βAR kinase as follows. […] After autoradiography, the phosphorylated rhodopsin bands were excised and counted. […]

Broadly, the inhibition is how much of the control response was suppressed. As a reminder, the Ki is the equilibrium dissociation constant of an inhibitor or competing ligand from its target. For the molecule `CC1CNCCN1S(=O)(=O)c1cccc2cnccc12` (stereo not shown) [Peptide H7, 1-5(isoquinolinesulfonyl)-2-methylpiperazine], the inhibition at 1 µM turned out to be 3 ± 4% in series [1] (1 μM) and 0% in series [2] (Homo sapiens, A-431, 1 μM). The inhibition at 10 µM was found to be 2 ± 7% in series [1] (10 μM) and 7 ± 5% in series [2] (Homo sapiens, A-431, 10 μM). Moreover, the “Inhibition of βAR kinase, %” value in series [1] (100 μM) turned out to be 19 ± 6%. Besides, the inhibition at 100 µM in series [1] (100 μM) was roughly 20%; in series [2] (Homo sapiens, A-431, 100 μM) it was roughly 20%. In addition, the “Inhibition of Desensitization, %” value in series [2] (100 μM) is 22 ± 14%. The Ki in series [3] is roughly 5 µM.

QELLCLRRSSSKAYGNGYS [CT-1 (337-355)]: in series [4], the “substrate for protein kinase A” value is reported as “serve as substrates for protein kinase A”.

By EC50 is commonly meant the concentration at which the effect is half-maximal. polylysine: the IC50 in series [5] was roughly 69 µM. Further, the EC50 in series [6] is roughly 2.8 µM.

B1: βAR kinase (Bos taurus) (protein)
chain: MADLEAVLADVSYLMAMEKSKATPAARASKKILLPEPSIRSVMQKYLEDRGEVTFEKIFSQKLGYLLFRDFCLKHLEEAKPLVEFYEEIKKYEKLETEEERLVCSREIFDTYIMKELLACSHPFSKSAIEHVQGHLVKKQVPPDLFQPYIEEICQNLRGDVFQKFIESDKFTRFCQWKNVELNIHLTMNDFSVHRIIGRGGFGEVYGCRKADTGKMYAMKCLDKKRIKMKQGETLALNERIMLSLVSTGDCPFIVCMSYAFHTPDKLSFILDLMNGGDLHYHLSQHGVFSEADMRFYAAEIILGLEHMHNRFVVYRDLKPANILLDEHGHVRISDLGLACDFSKKKPHASVGTHGYMAPEVLQKGVAYDSSADWFSLGCMLFKLLRGHSPFRQHKTKDKHEIDRMTLTMAVELPDSFSPELRSLLEGLLQRDVNRRLGCLGRGAQEVKESPFFRSLDWQMVFLQKYPPPLIPPRGEVNAADAFDIGSFDEEDTKGIKLLDSDQELYRNFPLTISERWQQEVAETVFDTINAETDRLEARKKTKNKQLGHEEDYALGKDCIMHGYMSKMGNPFLTQWQRRYFYLFPNRLEWRGEGEAPQSLLTMEEIQSVEETQIKERKCLLLKIRGGKQFVLQCDSDPELVQWKKELRDAYREAQQLVQRVPKMKNKPRSPVVELSKVPLIQRGSANGL
notes: βAR kinase was purified from bovine cerebral cortex; from tissue; host or cells: bovine cerebral cortex
In general, Km refers to the substrate concentration at which the rate is half of its maximum. As to B1, the Km in series [7] came out at 5.3 µM.
